This note sets out measurements from ChEMBL document CHEMBL1201862, “PubChem BioAssay data set” (2004).

The structures appear in SMILES notation.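 Grown in 96-well plates, cells were treated for 48 hours with each compound at five concentrations. Insufficient inhibition: endpoint recorded as highest concentration tested. GI50 marks 50% less growth.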 Active and inactive are the calls of the source. Cut-off read from the data, not from the text of the source: active = GI50 up to about 1.1 µM and inactive = higher.

Among the test systems are DMS-114; DMS-273; KM-20L2; LXFL 529; M19-MEL; SNB-78; HOP-18; RXF 631; XF498.
Holding throughout (experiment): growth of human tumour cells (NCI), 48 h

As to `O=C(O)CSc1nnc(COc2ccccc2)n1-c1ccccc1`, the GI50 in the test with DMS-114, with DMS-273, in the test with KM-20L2, in the test with LXFL 529, in the test with M19-MEL and in the test on SNB-78 was > 100 µM (inactive) throughout.
For `C=C1C(=O)O[C@@H]2C[C@@H](C)[C@@H]3C=CC(=O)[C@@]3(C)[C@@H](OC(=O)CC(=O)O[C@H]3[C@@H]4C(=C)C(=O)O[C@@H]4C[C@@H](C)[C@@H]4C=CC(=O)[C@]43C)[C@H]12`, the GI50 is 0.0312 µM (active) in the test on DMS-114; 0.0336 µM (active) in the test on DMS-273; 0.11 µM (active) in the test with HOP-18; 0.0771 µM (active) in the test with KM-20L2; < 0.0117 µM (active) in the test with LXFL 529; 0.0141 µM (active) in the test on M19-MEL. The GI50 was 0.0989 µM (active) with RXF 631, 0.0153 µM (active) in the test on SNB-78 and 0.0213 µM (active) with XF498.
`Cc1ccc(NC(=O)CC2SC(=N)NC2=O)cc1C` (centres undefined): the GI50 in the test with KM-20L2, in the test on LXFL 529, in the test with RXF 631, with SNB-78 and in the test on XF498 was > 100 µM (inactive) throughout.
Take `CCOC(=O)c1oc2ccc([N+](=O)[O-])c3c2c1CCC3`: the GI50 with DMS-114 is 36.9 µM (inactive); in the test with DMS-273, 58.3 µM (inactive); in the test with HOP-18, 6.55 µM (inactive); in the test with KM-20L2, > 100 µM (inactive); in the test on LXFL 529, > 100 µM (inactive); with M19-MEL it was > 100 µM (inactive). Further, the GI50 in the test on RXF 631 was 37.2 µM (inactive); in the test on SNB-78, 34.8 µM (inactive); in the test on XF498 it was 20.7 µM (inactive).
`CC1(C)CCOC(Sc2ccccc2)C1` (centres undefined): the GI50 is 21.3 µM (inactive) in the test with DMS-114; 28.2 µM (inactive) with DMS-273; 47.4 µM (inactive) in the test on KM-20L2; > 100 µM (inactive) in the test on LXFL 529; 30.3 µM (inactive) with M19-MEL; > 100 µM (inactive) in the test on SNB-78. Moreover, in the test with XF498, the GI50 was > 100 µM (inactive).
With `O=C(CO[N+](=O)[O-])OC/C=C/c1ccccc1`, the GI50 in the test with DMS-114, with DMS-273, in the test with KM-20L2, in the test on LXFL 529 and with M19-MEL was > 100 µM (inactive) throughout.
`CN(C)/C=N/c1nc2ncn(CCOC(=O)c3ccccc3)c2c(=O)[nH]1`: the GI50 with DMS-114, in the test on DMS-273, in the test on HOP-18, in the test with KM-20L2, in the test on LXFL 529 and in the test with M19-MEL was > 100 µM (inactive) in each case. Moreover, the GI50 in the test on RXF 631 and in the test on SNB-78 was > 100 µM (inactive) throughout.
On to `Brc1ccc(N2C[N+](c3ccc(Br)cc3)=NC(c3ccccc3)=N2)cc1`, for which the GI50 with DMS-114 is 19.5 µM (inactive); with DMS-273 it was 8.65 µM (inactive); with HOP-18 it was 14.8 µM (inactive); with KM-20L2 it was 18.2 µM (inactive); in the test on LXFL 529 it was 11.1 µM (inactive); in the test on M19-MEL it was 14.3 µM (inactive). The GI50 in the test with SNB-78 is 31.2 µM (inactive); in the test on XF498, 20.6 µM (inactive).
Regarding `N#CC(C#N)=c1[nH]c2cccc3c2-c2c(cccc2c3=C(C#N)C#N)[nH]1`, the GI50 in the test with DMS-114 is > 100 µM (inactive); with DMS-273 it was > 100 µM (inactive); with HOP-18, > 100 µM (inactive); in the test on KM-20L2 it was > 100 µM (inactive); in the test with LXFL 529, > 100 µM (inactive); in the test with SNB-78, 57.4 µM (inactive). In addition, in the test with XF498, the GI50 was > 100 µM (inactive).
With `Cc1nnc(N/N=C2/C(=O)Nc3c(Cl)cc(Cl)cc32)n1N`, the GI50 in the test on HOP-18 is 73.1 µM (inactive); in the test on KM-20L2, > 100 µM (inactive); in the test on LXFL 529, > 100 µM (inactive); in the test with M19-MEL, > 100 µM (inactive); with SNB-78, > 100 µM (inactive).
For `CN1Cc2c(nc(-c3ccc(Br)cc3)c[n+]2[O-])N(C)C1`, the GI50 with DMS-114, in the test with DMS-273, in the test on HOP-18, with KM-20L2, in the test on LXFL 529 and with SNB-78 was > 100 µM (inactive) in each case. Besides, the GI50 in the test on XF498 was > 100 µM (inactive).
Take `COC(CN1C(=O)c2cccc3cccc(c23)C1=O)OC`: the GI50 is 78 µM (inactive) in the test with DMS-114; 48.9 µM (inactive) in the test on DMS-273; > 100 µM (inactive) in the test with HOP-18; > 100 µM (inactive) in the test with KM-20L2; 62.7 µM (inactive) in the test with LXFL 529; > 100 µM (inactive) in the test on M19-MEL. Further, the GI50 with SNB-78 was > 100 µM (inactive); in the test on XF498, 23.1 µM (inactive).
For the molecule `COc1ccc2[nH]c3c(C)cc([N+](=O)[O-])c(C)c3c2c1`, the GI50 is 23.3 µM (inactive) in the test on DMS-114; 13.6 µM (inactive) in the test on DMS-273; 26.1 µM (inactive) in the test on HOP-18; 47.5 µM (inactive) in the test with KM-20L2; 25.5 µM (inactive) in the test on LXFL 529; 21.9 µM (inactive) with M19-MEL. Moreover, the GI50 in the test with XF498 is 34.2 µM (inactive).
For `O=C(c1ccc(Cl)cc1Cl)C1[C@H]2C(=O)N(c3ccc(Cc4ccc(N5C(=O)[C@@H]6ON(c7ccccc7)C(C(=O)c7ccc(Cl)cc7Cl)[C@@H]6C5=O)cc4)cc3)C(=O)[C@H]2ON1c1ccccc1` (some centres undefined), the GI50 with DMS-114, in the test with DMS-273, in the test with HOP-18, in the test on KM-20L2, in the test with LXFL 529 and in the test on M19-MEL was > 50 µM (inactive) each time. Also, the GI50 with RXF 631 and in the test on SNB-78 was > 50 µM (inactive) throughout.
For `CC(=O)NC(C=O)C(O[C@H](C)C(=O)NC(C)C(=O)NC(CCC(N)=O)C(=O)OCc1ccccc1)C(O)C(O)COC(=O)CCNc1c2ccccc2nc2cccc([N+](=O)[O-])c12` (some centres undefined), the GI50 with DMS-114 is 2.81 µM (inactive); in the test with DMS-273, 2.69 µM (inactive); with HOP-18 it was 4.3 µM (inactive); in the test with KM-20L2 it was 2 µM (inactive); in the test with LXFL 529 it was 1.79 µM (inactive); with M19-MEL, 1.66 µM (inactive). Also, the GI50 in the test on SNB-78 was 2.58 µM (inactive); with XF498 it was 1.83 µM (inactive).
As to `CC(/C(=N\Nc1ccccc1)c1ccc(O)cc1)C1C(=O)Oc2ccccc21` (centres undefined), the GI50 in the test with DMS-114, with DMS-273, in the test on KM-20L2, in the test on LXFL 529 and in the test with M19-MEL was > 100 µM (inactive) each time.
As for `O=S(=O)(O)SC/C=C\CSS(=O)(=O)O`, the GI50 with DMS-114 is 42.7 µM (inactive); with DMS-273 it was 69.5 µM (inactive); with HOP-18, > 100 µM (inactive); in the test with KM-20L2 it was > 100 µM (inactive); in the test with LXFL 529, > 100 µM (inactive); in the test on M19-MEL it was 98.9 µM (inactive). The GI50 in the test with RXF 631 is 37.5 µM (inactive); with SNB-78, > 100 µM (inactive); in the test with XF498, > 100 µM (inactive).
`COc1ccc(CCC2c3cc(OC)c(OC)cc3CCN2C)cc1OC` (centres undefined): the GI50 in the test with DMS-114, with HOP-18, in the test on KM-20L2, in the test on LXFL 529, in the test with M19-MEL and in the test with SNB-78 was > 100 µM (inactive) each time.
With `CC1C=C(CCCCCCCCCCCC[C@@H](O)[C@@H]2CC[C@@H]([C@@H]3CC[C@@H](C(O)CCCCCCCCCCCCC4=C[C@H](C)OC4=O)O3)O2)C(=O)O1` (some centres undefined), the GI50 with DMS-114 is 0.0697 µM (active); with DMS-273 it was > 41 µM (inactive); in the test with HOP-18, > 100 µM (inactive); in the test on KM-20L2, > 95.5 µM (inactive); with LXFL 529, 17.1 µM (inactive); in the test with M19-MEL, 31.2 µM (inactive). Also, in the test with XF498, the GI50 was 17.9 µM (inactive).
`CC1CC[C@@]23CCC4(C)[C@@](C=CC5[C@@]6(C)CCC(=O)C(C)(C)C6CC[C@]54C)(OC2=O)[C@@H]3[C@H]1C` (some centres undefined): the GI50 was 6.46 µM (inactive) in the test on DMS-114; 15.4 µM (inactive) in the test on KM-20L2; 9.89 µM (inactive) in the test on LXFL 529; 17.9 µM (inactive) with M19-MEL; 21.1 µM (inactive) with RXF 631; 20 µM (inactive) with SNB-78. Besides, the GI50 with XF498 was 15.3 µM (inactive).
Regarding `Cn1c(=O)nc2n(-c3cccc(F)c3)c3ccccc3nc-2c1=O`, the GI50 in the test on DMS-273 was 13.8 µM (inactive); with HOP-18 it was 34.1 µM (inactive); in the test on KM-20L2, 12.3 µM (inactive); in the test on LXFL 529, 37.8 µM (inactive); in the test with M19-MEL, 2.11 µM (inactive); in the test on SNB-78, 23.5 µM (inactive).
Regarding `CCN(CC)C(=S)S` [DITIOCARB SODIUM], the GI50 with DMS-114 is 0.0968 µM (active); with HOP-18 it was > 100 µM (inactive); in the test with KM-20L2, 69 µM (inactive); with LXFL 529, > 100 µM (inactive); with M19-MEL, 0.439 µM (active); with RXF 631, 3.27 µM (inactive). In addition, the GI50 was > 100 µM (inactive) in the test on SNB-78 and 0.221 µM (active) with XF498.
For `Sc1ncnc2nc[nH]c12` [MERCAPTOPURINE ANHYDROUS], the GI50 in the test with DMS-114 was 1.67 µM (inactive); in the test on DMS-273 it was 0.426 µM (active); with HOP-18 it was 192 µM (inactive); with KM-20L2, 1.92 µM (inactive); in the test on LXFL 529, 653 µM (inactive); in the test with M19-MEL, 69 µM (inactive). Besides, the GI50 in the test on SNB-78 is 90.4 µM (inactive); in the test with XF498, 5.04 µM (inactive).
Take `COCC(O)Cn1ccnc1[N+](=O)[O-]` (centres undefined) [MISONIDAZOLE]: the GI50 in the test on DMS-114, in the test with DMS-273, in the test on KM-20L2, with M19-MEL, with SNB-78 and with XF498 was > 100 µM (inactive) each time.
